The results in this text go back to ChEMBL document CHEMBL5653615 (J Biol Chem, 2013).

Test [1] is filed under the species Homo sapiens. Nature of the test: Inhibition of human CDK2/cyclin A at 500 nM by HotSpot assay relative to control.
Test [2] deals with CDK6/cyclin D1 (Homo sapiens) (UniProt P24385+Q00534). Nature of the test: Inhibition of human CDK6/cyclin D1 at 500 nM by HotSpot assay relative to control. It counts as protein-complex assay.
Test [3] concerns the target Mitogen-activated protein kinase kinase kinase 8 (Homo sapiens) (UniProt P41279). As to the kind of experiment: Inhibition of human COT1 at 500 nM by HotSpot assay relative to control.
In test [4] the target is T1, Myotonin-protein kinase (Homo sapiens) (UniProt Q09013).
T1 sequence (whole entry): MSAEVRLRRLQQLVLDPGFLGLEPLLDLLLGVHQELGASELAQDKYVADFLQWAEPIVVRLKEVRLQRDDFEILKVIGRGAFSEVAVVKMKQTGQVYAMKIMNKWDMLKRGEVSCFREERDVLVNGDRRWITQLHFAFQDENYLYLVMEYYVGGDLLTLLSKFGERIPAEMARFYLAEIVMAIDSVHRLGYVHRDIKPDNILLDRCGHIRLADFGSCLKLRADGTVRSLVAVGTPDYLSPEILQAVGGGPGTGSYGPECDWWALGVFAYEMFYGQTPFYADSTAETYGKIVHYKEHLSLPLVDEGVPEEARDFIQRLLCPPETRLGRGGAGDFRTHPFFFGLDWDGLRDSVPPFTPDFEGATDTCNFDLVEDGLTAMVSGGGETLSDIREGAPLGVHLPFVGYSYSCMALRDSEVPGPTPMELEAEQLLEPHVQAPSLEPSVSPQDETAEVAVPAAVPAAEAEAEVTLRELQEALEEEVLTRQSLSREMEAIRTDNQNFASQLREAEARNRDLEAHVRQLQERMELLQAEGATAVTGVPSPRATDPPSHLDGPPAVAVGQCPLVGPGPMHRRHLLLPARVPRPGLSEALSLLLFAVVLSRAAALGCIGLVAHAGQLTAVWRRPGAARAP
As to the kind of experiment: Inhibition of human DMPK at 500 nM by HotSpot assay relative to control.

Test [5] concerns the target T2, Ephrin type-B receptor 2 (Homo sapiens) (UniProt P29323).
T2 sequence (whole entry): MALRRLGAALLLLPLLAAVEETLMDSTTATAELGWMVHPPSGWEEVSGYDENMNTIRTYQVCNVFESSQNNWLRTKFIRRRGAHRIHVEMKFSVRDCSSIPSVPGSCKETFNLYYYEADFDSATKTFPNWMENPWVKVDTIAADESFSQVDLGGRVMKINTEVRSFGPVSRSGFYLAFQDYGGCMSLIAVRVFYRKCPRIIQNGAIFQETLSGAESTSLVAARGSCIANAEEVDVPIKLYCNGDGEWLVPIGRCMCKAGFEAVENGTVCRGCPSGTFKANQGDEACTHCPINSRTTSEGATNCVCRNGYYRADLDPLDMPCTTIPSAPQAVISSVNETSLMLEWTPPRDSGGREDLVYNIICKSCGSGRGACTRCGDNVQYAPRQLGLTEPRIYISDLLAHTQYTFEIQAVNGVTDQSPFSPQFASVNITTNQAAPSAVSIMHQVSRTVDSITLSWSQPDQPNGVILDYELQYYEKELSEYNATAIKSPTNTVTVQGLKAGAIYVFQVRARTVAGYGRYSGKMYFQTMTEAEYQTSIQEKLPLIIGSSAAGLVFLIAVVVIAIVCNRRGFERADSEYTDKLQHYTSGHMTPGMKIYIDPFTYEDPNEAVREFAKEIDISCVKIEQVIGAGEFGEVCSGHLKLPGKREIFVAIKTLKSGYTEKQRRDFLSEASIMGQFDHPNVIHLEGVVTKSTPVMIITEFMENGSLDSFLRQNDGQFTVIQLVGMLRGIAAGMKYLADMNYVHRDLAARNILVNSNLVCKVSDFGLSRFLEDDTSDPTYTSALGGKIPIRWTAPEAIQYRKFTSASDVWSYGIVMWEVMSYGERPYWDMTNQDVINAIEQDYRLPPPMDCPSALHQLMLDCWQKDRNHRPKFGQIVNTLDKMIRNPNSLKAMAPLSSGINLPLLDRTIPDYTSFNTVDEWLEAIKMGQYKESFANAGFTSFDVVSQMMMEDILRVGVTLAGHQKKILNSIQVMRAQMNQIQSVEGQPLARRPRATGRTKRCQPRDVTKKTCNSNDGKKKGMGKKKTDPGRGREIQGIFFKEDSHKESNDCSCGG
As to the kind of experiment: Inhibition of human EPHB2 at 500 nM by HotSpot assay relative to control.

The target of test [6] is Insulin receptor (Homo sapiens) (UniProt P06213). Nature of the test: Inhibition of human IR at 500 nM by HotSpot assay relative to control.
In test [7] the target is T3, Serine/threonine-protein kinase Nek2 (Homo sapiens) (UniProt P51955).
T3 sequence (whole entry): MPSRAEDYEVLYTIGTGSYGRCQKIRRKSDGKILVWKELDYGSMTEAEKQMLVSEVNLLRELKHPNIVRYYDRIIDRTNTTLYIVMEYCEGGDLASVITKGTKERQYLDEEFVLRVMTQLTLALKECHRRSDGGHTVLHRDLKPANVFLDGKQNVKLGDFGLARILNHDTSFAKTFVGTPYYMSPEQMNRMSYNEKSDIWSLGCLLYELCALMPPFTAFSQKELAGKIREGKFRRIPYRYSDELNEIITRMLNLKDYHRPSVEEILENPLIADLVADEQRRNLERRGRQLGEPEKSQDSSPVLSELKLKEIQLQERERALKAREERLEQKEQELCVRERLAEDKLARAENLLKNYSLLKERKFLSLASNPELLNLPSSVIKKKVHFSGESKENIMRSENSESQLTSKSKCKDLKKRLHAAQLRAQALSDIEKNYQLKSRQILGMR
As to the kind of experiment: Inhibition of human NEK2 at 500 nM by HotSpot assay relative to control.

Test [8] deals with Serine/threonine-protein kinase PAK 2 (Homo sapiens) (UniProt Q13177). As to the kind of experiment: Inhibition of human PAK2 at 500 nM by HotSpot assay relative to control.
Test [9] has as its target Serine/threonine-protein kinase PAK 3 (Homo sapiens) (UniProt O75914). Nature of the test: Inhibition of human PAK3 at 500 nM by HotSpot assay relative to control.
Test [10] deals with Serine/threonine-protein kinase PAK 4 (Homo sapiens) (UniProt O96013). As to the kind of experiment: Inhibition of human PAK4 at 500 nM by HotSpot assay relative to control.
For test [11], the target named is Wee1-like protein kinase (Homo sapiens) (UniProt P30291). As to the kind of experiment: Inhibition of human WEE1 at 500 nM by HotSpot assay relative to control.
Chain of Wee1-like protein kinase (Homo sapiens) (P30291 whole entry, looked up): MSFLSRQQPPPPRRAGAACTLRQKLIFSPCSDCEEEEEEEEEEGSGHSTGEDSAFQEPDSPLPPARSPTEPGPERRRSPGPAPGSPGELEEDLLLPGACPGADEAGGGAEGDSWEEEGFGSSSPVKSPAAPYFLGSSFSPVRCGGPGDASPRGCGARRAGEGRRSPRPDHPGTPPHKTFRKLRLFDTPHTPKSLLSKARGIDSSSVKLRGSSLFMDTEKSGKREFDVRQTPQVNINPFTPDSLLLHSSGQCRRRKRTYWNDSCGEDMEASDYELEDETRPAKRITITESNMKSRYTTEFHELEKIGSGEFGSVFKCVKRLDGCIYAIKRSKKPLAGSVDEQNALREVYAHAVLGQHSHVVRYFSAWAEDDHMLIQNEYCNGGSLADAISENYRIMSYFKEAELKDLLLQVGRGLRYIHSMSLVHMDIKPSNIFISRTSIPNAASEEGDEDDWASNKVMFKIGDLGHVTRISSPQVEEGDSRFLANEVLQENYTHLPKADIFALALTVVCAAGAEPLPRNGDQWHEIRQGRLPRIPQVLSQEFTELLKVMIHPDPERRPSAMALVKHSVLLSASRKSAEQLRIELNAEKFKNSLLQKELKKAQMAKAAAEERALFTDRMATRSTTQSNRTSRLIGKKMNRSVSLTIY

Chain of Serine/threonine-protein kinase PAK 3 (Homo sapiens) (O75914 whole entry, looked up): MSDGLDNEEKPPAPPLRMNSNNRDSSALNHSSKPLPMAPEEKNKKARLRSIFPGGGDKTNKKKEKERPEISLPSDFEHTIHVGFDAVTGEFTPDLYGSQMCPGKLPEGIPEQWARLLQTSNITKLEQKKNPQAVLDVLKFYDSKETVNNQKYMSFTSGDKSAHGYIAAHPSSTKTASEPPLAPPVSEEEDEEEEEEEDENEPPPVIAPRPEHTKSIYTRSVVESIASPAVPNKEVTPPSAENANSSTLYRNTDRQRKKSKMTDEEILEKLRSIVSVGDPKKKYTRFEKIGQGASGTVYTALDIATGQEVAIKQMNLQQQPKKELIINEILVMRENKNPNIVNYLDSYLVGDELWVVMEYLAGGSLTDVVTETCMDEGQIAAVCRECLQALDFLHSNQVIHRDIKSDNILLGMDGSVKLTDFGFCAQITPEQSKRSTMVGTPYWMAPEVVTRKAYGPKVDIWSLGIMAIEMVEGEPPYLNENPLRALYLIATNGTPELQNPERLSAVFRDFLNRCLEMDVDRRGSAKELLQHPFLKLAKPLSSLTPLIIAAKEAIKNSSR
Chain of Insulin receptor (Homo sapiens) (P06213 28-758 limits assumed): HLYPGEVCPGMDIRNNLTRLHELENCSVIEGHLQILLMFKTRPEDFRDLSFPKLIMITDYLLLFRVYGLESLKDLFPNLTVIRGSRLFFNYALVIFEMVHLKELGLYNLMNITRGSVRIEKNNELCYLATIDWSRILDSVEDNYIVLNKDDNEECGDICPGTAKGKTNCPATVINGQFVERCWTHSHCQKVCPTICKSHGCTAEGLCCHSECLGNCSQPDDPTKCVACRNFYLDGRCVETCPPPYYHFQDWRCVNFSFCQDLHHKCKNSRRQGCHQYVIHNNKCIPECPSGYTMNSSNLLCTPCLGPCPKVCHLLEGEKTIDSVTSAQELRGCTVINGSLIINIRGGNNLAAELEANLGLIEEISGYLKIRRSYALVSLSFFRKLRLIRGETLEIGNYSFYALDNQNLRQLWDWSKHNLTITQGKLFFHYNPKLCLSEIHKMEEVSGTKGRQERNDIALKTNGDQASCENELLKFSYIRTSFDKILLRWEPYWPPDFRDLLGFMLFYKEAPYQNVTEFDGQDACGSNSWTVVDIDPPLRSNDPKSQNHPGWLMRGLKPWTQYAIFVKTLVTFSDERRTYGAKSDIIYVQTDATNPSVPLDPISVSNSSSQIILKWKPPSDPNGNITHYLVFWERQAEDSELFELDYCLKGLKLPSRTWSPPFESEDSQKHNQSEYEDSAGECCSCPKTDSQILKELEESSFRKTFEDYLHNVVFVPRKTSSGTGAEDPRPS
Chain of Insulin receptor (Homo sapiens) (P06213 763-1382 limits assumed): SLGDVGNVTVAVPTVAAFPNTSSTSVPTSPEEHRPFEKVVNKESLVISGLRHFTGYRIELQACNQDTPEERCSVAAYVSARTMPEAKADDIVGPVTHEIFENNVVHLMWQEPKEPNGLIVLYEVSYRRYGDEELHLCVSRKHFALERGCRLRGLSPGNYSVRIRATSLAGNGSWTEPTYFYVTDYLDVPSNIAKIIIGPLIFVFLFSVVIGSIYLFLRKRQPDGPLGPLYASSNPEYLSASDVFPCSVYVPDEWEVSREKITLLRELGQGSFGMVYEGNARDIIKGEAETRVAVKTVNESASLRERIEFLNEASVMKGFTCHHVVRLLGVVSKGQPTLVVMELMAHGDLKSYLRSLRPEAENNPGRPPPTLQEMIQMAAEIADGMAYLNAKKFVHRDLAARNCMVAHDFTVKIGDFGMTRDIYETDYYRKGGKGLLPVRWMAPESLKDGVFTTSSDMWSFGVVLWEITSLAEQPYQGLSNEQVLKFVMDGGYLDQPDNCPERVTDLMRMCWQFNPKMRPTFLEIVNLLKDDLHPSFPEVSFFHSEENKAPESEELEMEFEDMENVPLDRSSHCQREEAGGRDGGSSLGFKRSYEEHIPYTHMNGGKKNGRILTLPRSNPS
Chain of Mitogen-activated protein kinase kinase kinase 8 (Homo sapiens) (P41279 whole entry): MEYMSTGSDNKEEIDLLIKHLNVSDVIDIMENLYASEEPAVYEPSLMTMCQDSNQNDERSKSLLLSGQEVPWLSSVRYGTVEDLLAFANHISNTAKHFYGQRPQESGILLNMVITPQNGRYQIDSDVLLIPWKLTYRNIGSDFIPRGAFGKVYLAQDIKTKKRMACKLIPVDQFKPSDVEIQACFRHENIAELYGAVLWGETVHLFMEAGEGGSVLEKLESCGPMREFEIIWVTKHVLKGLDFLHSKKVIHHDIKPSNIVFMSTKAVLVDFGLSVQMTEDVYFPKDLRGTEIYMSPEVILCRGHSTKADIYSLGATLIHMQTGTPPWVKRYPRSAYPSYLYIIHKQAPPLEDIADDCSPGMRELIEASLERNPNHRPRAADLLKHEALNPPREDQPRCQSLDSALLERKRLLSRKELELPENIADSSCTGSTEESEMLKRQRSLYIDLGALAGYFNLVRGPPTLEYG
Chain of Serine/threonine-protein kinase PAK 2 (Homo sapiens) (Q13177 whole entry): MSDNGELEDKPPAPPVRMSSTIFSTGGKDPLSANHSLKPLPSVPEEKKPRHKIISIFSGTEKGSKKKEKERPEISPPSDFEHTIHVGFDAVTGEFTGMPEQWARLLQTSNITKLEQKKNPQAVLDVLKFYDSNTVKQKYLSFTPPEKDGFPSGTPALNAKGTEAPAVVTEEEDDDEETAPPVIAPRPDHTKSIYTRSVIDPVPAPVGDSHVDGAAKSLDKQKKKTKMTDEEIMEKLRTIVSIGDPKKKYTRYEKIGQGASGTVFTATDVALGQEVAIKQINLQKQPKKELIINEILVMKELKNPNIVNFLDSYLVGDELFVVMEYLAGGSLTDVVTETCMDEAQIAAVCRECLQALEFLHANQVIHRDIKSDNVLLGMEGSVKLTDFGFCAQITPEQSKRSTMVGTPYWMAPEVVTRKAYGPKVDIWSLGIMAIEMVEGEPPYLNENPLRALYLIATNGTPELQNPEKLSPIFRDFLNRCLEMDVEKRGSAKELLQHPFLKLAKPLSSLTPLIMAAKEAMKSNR
Chain of Serine/threonine-protein kinase PAK 4 (Homo sapiens) (O96013 whole entry, looked up): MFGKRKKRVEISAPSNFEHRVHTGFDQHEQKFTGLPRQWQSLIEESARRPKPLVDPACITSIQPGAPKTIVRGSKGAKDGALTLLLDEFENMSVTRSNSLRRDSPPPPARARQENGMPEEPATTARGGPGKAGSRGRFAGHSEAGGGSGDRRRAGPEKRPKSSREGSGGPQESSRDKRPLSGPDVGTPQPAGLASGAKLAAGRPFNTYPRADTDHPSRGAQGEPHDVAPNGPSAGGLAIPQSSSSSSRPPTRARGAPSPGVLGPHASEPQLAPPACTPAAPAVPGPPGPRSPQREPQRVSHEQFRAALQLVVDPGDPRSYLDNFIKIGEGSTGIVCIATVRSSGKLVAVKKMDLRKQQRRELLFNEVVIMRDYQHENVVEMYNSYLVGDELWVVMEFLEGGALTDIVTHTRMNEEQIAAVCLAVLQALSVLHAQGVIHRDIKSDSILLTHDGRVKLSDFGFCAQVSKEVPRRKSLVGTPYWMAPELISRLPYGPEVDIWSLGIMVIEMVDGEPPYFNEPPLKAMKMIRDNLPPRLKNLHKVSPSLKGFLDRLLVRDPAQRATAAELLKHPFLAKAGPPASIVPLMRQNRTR

One may read the inhibition as the change of the read-out against control, counted positive when it falls. Take `Nc1n[nH]c2nnc(-c3c(-c4ccccc4)nn4ccccc34)cc12`: the inhibition is 7.12% in test [1]; -0.33% in test [2]; 4.98% in test [3]; -2.61% in test [4]; 6.94% in test [5]; 21.7% in [6]. For the same compound, the inhibition in test [7] is 4.69%; in test [8] it was -0.21%; in test [9], -0.04%; in test [10] it was -1.44%; in [11], 7.57%.
Turning to `Oc1n[nH]c2nnc(-c3c(-c4ccccc4)nn4ccccc34)cc12`, the inhibition in test [1] was -0.72%; in test [2], -3.16%; in test [3] it was 4.58%; in test [4], -3.39%; in test [5] it was 5.22%; in test [6] it was 72.6%. In addition, the inhibition in test [7] is -3.97%; in test [8], -1.47%; in test [9], 0.99%; in test [10] it was -0.93%; in test [11], 20.8%.
